# Patent publication US20240197896A1, “SYNTHETIC PEPTIDE SHUTTLE AGENT BIOCONJUGATES FOR INTRACELLULAR CARGO DELIVERY” (FELDAN BIO INC., priority 2021, published 2024)
# Read-outs that look alike come from different tables or passages of the source. Ends that are not written are not given here.
# Legend:
# [1] = Cell viability / cytotoxicity in HeLa transduction assays (flow cytometry FSC/SSC); format: cell-based; conditions: human, HeLa cells
# Protocol: (§1) HeLa cells were plated (20 000 cells/well) in a 96 well-dish one day prior to transduction. Each delivery mix comprising a PEGylated shuttle agent (monomer or multimer) or a non-PEGylated shuttle agent at the indicated concentration(s) and 10 μM of a fluorescent cargo (e.g., GFP-NLS or DRI-NLS^647) was prepared in 50 μL with RPMI 1640 media completed with 10% human serum. Cells were washed once with PBS 1×, then incubated for 5 minutes with the prepared shuttle/cargo mix, PEGylated shuttle agent/cargo mix, and/or with the cargo alone as a negative control. After the incubation, 100 μL of DMEM containing 10% FBS was added to the mix and removed. Cells were washed once with PBS 1× and incubated in DMEM containing 10% FBS. Cells were then analyzed after a 1-hour incubation by fluorescence microscopy (Revolve, Echo: San Diego, CA, USA) and flow cytometry (Cytoflex™, Beckman Coulter: Indianapolis, IN, USA).
# The signal intensity emitted by the fluorescent cargo and the percentage of cargo delivered cells was quantified by flow cytometry. Untreated cells were used to establish a baseline to quantify the increase in fluorescence that results from a successful internalization of the cargo in the presence of the shuttle agent in the treated cells. The percentage of cells with a fluorescence signal greater than the maximum fluorescence of untreated cells, “mean %” or “Pos cells (%)”, was used to identify positive fluorescent cells for determining transduction efficiency. The mean fluorescence intensity (Mean-FITC/APC) is the average of all fluorescence intensities of each cell with a fluorescent signal after delivery of fluorescent cargos. “Delivery scores” were calculated to provide a further indication of the total amount of cargo that was delivered per cell amongst all cargo-positive cells and was calculated by multiplying the mean fluorescence intensity (of at least duplicate samples) measured for the viable cargo-positive cells, by the mean percentage of viable cargo-positive cells, divided by 100,000. Finally, a “Delivery-Viability Score” was sometimes calculated for each peptide as the Mean viability multiplied by the Delivery Score multiplied by 10, enabling a ranking of the shuttle agents in terms of both their transduction activity and toxicity. Furthermore, the events detected by the cytometer and which correspond to the cells (size and granularity) were analyzed. Cellular toxicity (% cell viability) is obtained by comparing the size (FSC) and granularity (SSC) of each cell delivery condition to untreated cells. The delivery conditions of the cells also included the “cargo only” as a control.
# [2] = tested on: HeLa cells; assay: In vitro transduction of DRI-NLS^647 cargo in HeLa cells (flow cytometry and fluorescence microscopy); format: cell-based, Human; conditions: used at 10 μM; cargo 10 μM
# Protocol: as §1, with “Cells were washed once with PBS 1× and incubated in DMEM containing 10% FBS.” left out
# (§2) The signal intensity emitted by the fluorescent cargo and the percentage of cargo delivered cells was quantified by flow cytometry. Untreated cells were used to establish a baseline to quantify the increase in fluorescence that results from a successful internalization of the cargo in the presence of the shuttle agent in the treated cells. The percentage of cells with a fluorescence signal greater than the maximum fluorescence of untreated cells, “mean %” or “Pos cells (%)”, was used to identify positive fluorescent cells for determining transduction efficiency. […]
# [3] = tested on: HeLa cells; assay: In vitro transduction of GFP-NLS cargo in HeLa cells (flow cytometry and fluorescence microscopy); format: cell-based; conditions: used at 10 μM; 10% human serum
# Protocol: as §1, with “Cells were washed once with PBS 1× and incubated in DMEM containing 10% FBS.” left out
# as §2
# [4] = tested on: cells; conditions: following the cells being exposed to the shuttle agent and cargo; cited from earlier work
# [5] = in vitro; conditions: human, cerebrospinal or other body fluid
# Description: To evaluate the effect of sputum from CF patients on the shuttle agent conjugates, degradation of FSD10 or FSD10-mal-PEG20K was first assessed to determine whether addition of a PEG on the shuttle was protective from the sputum.
compound,measurement,setting,value
N=C(N)NCCC[C@H](NC(=O)[C@H](CCCNC(=N)N)NC(=O)[C@H](CCCNC(=N)N)NC(=O)[C@H](CCC(N)=O)NC(=O)[C@H](CCCNC(=N)N)NC(=O)[C@H](CCCNC(=N)N)NC(=O)[C@H](CCCCN)NC(=O)[C@H](CCCCN)NC(=O)[C@H](CCCNC(=N)N)NC(=O)CNC(=O)[C@@H](N)Cc1ccc(O)cc1)C(=O)O [TAT],viability at 5 min,"[1]; concentrations of 10 to 220 μM (data not shown), read-out: viabilities",> 80%
"FSD10scr: negative control peptide, same amino acids of FSD10 rearranged in a scrambled order (KWKLARAFARAIKKLGGSGGGSYARALRRQARTG; FSD10 Scarmble)",nuclear cargo transduction of independent DRI-NLS^647 by microscopy,[2],no significant transduction
same,nuclear cargo transduction of GFP-NLS by microscopy,[3],no significant transduction
His-CM18-PTD4: first generation shuttle agent (HHHHHHKWKLFKKIGAVLKVLTTGYARAAARQARA; His-CM18-PTD4),time to deliver GFP-NLS cargo to the cytosol,[4],45 s
KWKLARAFARAIKKLGGSGGGSYARALRRQARTG [FSD10],metabolised at 5 min,[5],40%
same,"viability at 5 min, 20 µM","[1]; shuttle agent at 20 μM, 10 μM GFP-NLS",55%
same,"viability at 5 min, 40 µM","[1]; shuttle agent at 40 μM, 10 μM GFP-NLS",6%
same,viability at 5 min,"[1]; shuttle agent, 10 μM GFP-NLS, read-out: cell viabilities",< 10%
